Laboratory results reported in patent publication US9150559B2, “Anti-proliferative compounds and methods for using the same” (The Board of Trustees of the Leland Stanford Junior …, priority 2011, dated 2015).

What was measured:
[1] = Initial pharmacokinetic studies in mice; format: in vivo
Experimental: Initial pharmacokinetic studies were conducted in mice to inform design of pre-clinical efficacy studies.

[2] = Solubility / formulation property; format: physicochemical
[3] = Additional toxicity study, subcutaneous twice a day for 10 days; format: in vivo; details: mice
Experimental: An additional toxicity study was performed by injecting mice subcutaneously twice a day with 20 mg/kg compound formulated in 5% DMSO/20% gamma-cyclodextrin or 22.5 mg/kg compound formulated in 10% DMSO/40% captisol. for 10 consecutive days. Animals were also dosed with gamma-cyclodextrin or captisol vehicle alone.

[4] = test system: human cancer cell lines derived from 9 different tissues; assay: NCI 60-cell line screen, growth inhibition (sulforhodamine B); format: cell-based; details: colon and prostate cancer cell lines; 48 hours incubation
Experimental: FIG. 1. Mean graph representing the sensitivity of 60 human cell lines to compound 1. The vertical line at GI50 (the drug concentration resulting in a 50% growth reduction) represents the mean response to 10 μM compound 1.
FIG. 2. Growth response of human cell lines grown for 2 days in the presence of increasing concentrations of compound 1.
The compounds have broad specificity and affect human cell lines of multiple lineages. The growth inhibitory properties were analyzed in human cancer cell lines derived from 9 different tissues in the NCI 60-cell line screen. To perform this assay, cells were plated in 96-well plates and incubated overnight. After 24 hours, compounds were added to the wells and plates. Two plates of each cell line were set aside and fixed in TCA to measure the quantity of cells present at the time drug was added (time 0). The remaining plates were incubated for 48 hours. The assay was terminated by addition of TCA, and the cells were quantified by staining the cellular proteins with sulforhadamine B. The growth inhibition (GI50) was calculated by dividing the difference between treated cells at the beginning and end of the assay by the difference between untreated cells at the beginning and end of the assay.

[5] = test system: normal murine bone marrow progenitors; assay: Therapeutic window: human B-ALL cell lines versus normal bone marrow progenitors; format: cell-based, human and murine
[6] = test system: MV411-lucifease cell line; assay: In vitro sensitivity of MV411-luciferase cell line; format: cell-based, human
[7] = Preliminary toxicity studies, daily injection over 10 days; format: in vivo
Experimental: Preliminary toxicity studies were performed. Mice were injected (vehicle alone, 8 mg/kg, or 16 mg/kg) daily over a 10 day-period with a 2-day holiday after the first 4 days.

[8] = test system: primary human patient ALL samples; assay: Inhibition of primary human patient ALL samples; format: cell-based
Experimental: (§1) The majority of human leukemia cell lines with MLL translocations (3/4) were inhibited more potently than non-MLL cell lines (FIG. 3); although most non-MLL cells lines (4/6) were still sensitive to the compounds. […] Compound 1 also has inhibitory effects on primary human patient ALL samples with an IC50 of 4-20 nM.

[9] = test system: human and mouse leukemia cell lines; assay: Apoptosis (annexin V and propidium iodide staining) after a single treatment; format: cell-based
Source text: Compound 1 induced death of human and mouse leukemia cell lines by apoptosis (annexin V and propidium iodide staining) within 3 days of a single treatment, indicating a cytotoxic as opposed to cytostatic effect.

[10] = test system: cells lines with other translocations (E2A-PBX, E2A-HLF, TEL-PDGFRB); assay: Viability of human leukemia (B-ALL) cell lines, cell titer blue assay; format: cell-based; details: read-out: IC50 (half maximal inhibitory concentration)
Experimental: (§2) FIG. 3. Inhibition of human B-ALL cell lines treated with compound. Cell lines were treated with increasing concentrations of compound and assessed for viability 3 days post-treatment by cell titer blue assay.
as §1

[11] = test system: human leukemia cell lines with MLL translocations; assay: as above; format: cell-based; details: 72 h, viability 3 days post-treatment, read-out: IC50 (half maximal inhibitory concentration)
Experimental: as §2, §1

[12] = test system: AML cell lines induced by MLL-AF10 or MLL-AF9; assay: Effects on murine leukemia cell lines established from AMLs induced by MLL fusion oncogenes; format: cell-based
Experimental: Compound 1 was also tested for its effects on murine leukemia cell lines established from AMLs induced via retroviral transduction of MLL fusion oncogenes (Somervaille, T. C. & Cleary, M. L. Identification and characterization of leukemia stem cells in murine MLL-AF9 acute myeloid leukemia. Cancer Cell 10, 257-268, (2006)).

[13] = test system: MLL leukemia cell lines (RS411-MLL-AF4; HB-MLL-ENL) and control cells (REH-TEL-AML); assay: Cell-based high-throughput phenotypic screen, cell viability by fluorescent indicator dye; set-up: species or system human; details: 2 days after addition of compounds
Experimental: Cell viability was assessed using a fluorescent indicator dye at 2 days after addition of compounds.

In the case of `Cc1ccc(S(=O)(=O)Cc2nc(-c3ccc(C(=O)NCc4cccnc4)cc3)oc2C)cc1` [Compound 1], the “compound remaining in plasma” value ([1]; at 24 hours) is reported as “almost no compound remained”, the half-life ([1]; mouse, plasma, 16 mg/kg i.p. or s.c. (10% DMSO/40% captisol), 25 mg/kg i.p., s.c., oral (5% DMSO/20% gamma-cyclodextrin)) is reported as about 1.5 h and the absorption into plasma ([1]; single intra-peritoneal or subcutaneous injection 16 mg/kg) is reported as “quickly absorbed in plasma”. The solubility [2] was “sparingly soluble”, the nephrotoxicity ([3]; gamma-cyclodextrin formulation, 20 mg/kg s.c. twice a day) was “No nephrotoxicity was observed” and the “toxic side effects (histological tissue morphology, serological liver and kidney function tests)” value ([3]; s.c. twice a day, 20 mg/kg (5% DMSO/20% gamma-cyclodextrin) or 22.5 mg/kg (10% DMSO/40% captisol)) was “No toxic side effects were observed”. The “growth inhibitory activity (GI50) in NCI 60-cell line screen” value [4] was “particularly high activity”, the “sensitivity of human B-ALL cells versus normal murine bone marrow progenitor cells” value [5] was “differential sensitivity” and the IC50 ([6]; Homo sapiens, MV411-luciferase cell line) was 10 nM. For the same compound, the IC100 ([6]; MV411-luciferase cell line, printed with (±20 nM)) was 25 nM, the “effect of pre-incubation with FBS on potency” value ([6]; pre-incubation of compound with FBS prior to cell treatment in vitro) was “no effect on potency” and the “tolerability (distress, body weight reduction)” value ([7]; mice, 8 or 16 mg/kg daily over 10 days with 2-day holiday) was “All but one animal tolerated dosing”. The nephrotoxicity ([7]; mice, captisol formulation, also seen in animals treated with vehicle only) was “Mild nephrotoxicity”, the cardiotoxicity ([7]; mice, high-dose group (16 mg/kg)) was “Severe cardiotoxicity in one animal and mild cardiotoxicity in another animal” and the “MTD or lethal dose” value ([7]; mouse, in vivo) was “not achieved”. The IC50 [8] was 4 to 20 nM, the “kinetics of cell death: completion” value ([9]; after treatment) was 48 h and the “kinetics of cell death: initiation” value ([9]; after treatment) was 24 h. The “time to death by apoptosis” value ([9]; single treatment, annexin V and propidium iodide staining) was at most 3 days, the IC50 [10] was 10 to 20 nM and the IC50 [11] was 1 to 10 nM. The “sensitivity of murine AML cell lines” value [12] was “highly sensitive”.
For `CC(=O)[C@]1(O)Cc2c(O)c3c(c(O)c2[C@@H](O[C@H]2C[C@H](N)[C@H](O)[C@H](C)O2)C1)C(=O)c1ccccc1C3=O` [idarubicin, reference compound], the “sensitivity of human B-ALL cells versus normal murine bone marrow progenitor cells” value [5] was “overlapping potency” and the “cell viability in high-throughput screen” value [13] was “reduced viability of all cell lines”.
